Laboratory results: patent US20240122932A1, “Methods of Treating B-Cell Malignancy Using Bcl-2 Inhibitor” (BeiGene Switzerland GmbH, priority 2021, published 2024)

Test system: MAVER-1 mantle cell lymphoma (MCL) subcutaneous xenograft
Experiment: MAVER-1 MCL subcutaneous xenograft model
Type: in vivo, NCG mice
Method: MAVER-1 cells are of mantle cell lymphoma (MCL) origin and were obtained from American Type Culture Collection (ATCC CRL-3008, Manassas, VA, DC, USA). Cells were grown in RPM 1640 medium (Corning, Cat #10-040-CVR), supplemented with 10% (v/v) fetal bovine serum (Gibco, Cat #10099-141C), and 100 μg/mL of penicillin and streptomycin (Gibco, Cat #15140-122). MAVER-1 cells were maintained as suspension cell cultures at 37° C. in a 5% CO2 atmosphere. Five to six-week-old female NCG mice were purchased from Gempharmatech of Information Technology Center. All animals were maintained under specific pathogen free (SPF) “full barrier” condition with free access to food and water. Mice were group-housed under a 12 h light:dark cycle (lights on at 08:00 h), at a temperature of 21-26° C. and 44-61% humidity in IVC cages (Lingyunboji (Beijing) Technology Co., Ltd.). Mice were fed with complete granulated feed with Co60 radiosterilization (Beijing Ke Ao Xie Li Feed Co., Ltd.).
On the day of implantation, MAVER-1 cells were harvested and re-suspended with appropriate volume of ice cold DPBS and same volume of Matrigel (Corning, Cat #356237) to give a final concentration of 1.5×10^7 cells/mL. Re-suspended cells were placed on ice prior to inoculation. The right front flank region of each mouse was cleaned with 75% ethanol prior to cell inoculation. Each animal was injected subcutaneously with 3×10^6 cells in 200 μL of cell suspension in the right front flank via a 26-gauge needle. After implantation, primary tumor volume was measured in two dimensions using a caliper.
Animals were randomly assigned into 7 groups with 10 mice per group according to body weight and tumor volume (100 mm^3-200 mm^3). The groups consisted of vehicle group, 5, 15 mg/kg of venetoclax with QD dosing, 5, 15 mg/kg of Compound 1 with QD dosing, and 2.5, 7.5 mg/kg of Compound 1 with BID dosing. Treatments were administered by oral gavage (p.o.) in a volume of 10 mL/kg body weight. Body weight was assessed immediately before dosing and volume dosed was adjusted accordingly.
Individual body weight was recorded twice weekly, with mice being monitored daily for clinical signs of toxicity for the duration of the study. Mice were euthanized using carbon dioxide when their tumor volume reached 2,000 mm^3, the tumor was ulcerated, or body weight loss exceeded 20%.
Tumor volume was calculated using the formula: V=0.5×(a×b^2) where a and b are the long and short diameters of the tumor, respectively. Tumor growth inhibition (TGI) was calculated using the following formula: % TGI=100×[1−(treatedt−treatedt0)/(vehiclet−vehiclet0)] (treated t=treated tumor volume at time t, treated t0=treated tumor volume at time 0, vehicle t=vehicle tumor volume at time t and vehicle t0=vehicle tumor volume at time 0)

SMILES: CC(C)c1ccccc1[C@@H]1CCCN1C1CC2(CCN(c3ccc(C(=O)NS(=O)(=O)c4ccc(NCC5CCC(C)(O)CC5)c([N+](=O)[O-])c4)c(Oc4cnc5[nH]ccc5c4)c3)CC2)C1 (stereo partly drawn) [Compound 1, 2-((1H-pyrrolo[2,3-b]pyridin-5-yl)oxy)-N-((4-((((1r,4r)-4-hydroxy-4-methylcyclohexyl)methyl)amino)-3-nitrophenyl)sulfonyl)-4-(2-((S)-2-(2-isopropylphenyl)pyrrolidin-1-yl)-7-azaspiro[3.5]nonan-7-yl)benzamide]
- Mean Tumor volume (Day 14) (mm^3 ± SEM) (2.5 mg/kg BID × 17 p.o.): 511.5 ± 49.9 mm^3
- TGI (Day 14) (2.5 mg/kg BID × 17 p.o.): 77%
- Mean Tumor volume (Day 14) (mm^3 ± SEM) (5 mg/kg QD × 17 p.o.): 383.5 ± 29.6 mm^3
- TGI (Day 14) (5 mg/kg QD × 17 p.o.): 86%
- Mean Tumor volume (Day 14) (mm^3 ± SEM) (7.5 mg/kg BID × 17 p.o.): 136.2 ± 2.6 mm^3
- TGI (Day 14) (7.5 mg/kg BID × 17 p.o.): 103%
- Mean Tumor volume (Day 14) (mm^3 ± SEM) (15 mg/kg QD × 17 p.o.): 140.5 ± 5.3 mm^3
- TGI (Day 14) (15 mg/kg QD × 17 p.o.): 103%
- tumor growth suppression (in words) (mouse, in vivo): potently suppressed tumor growth in a dose-dependent manner
- anti-tumor activity relative to venetoclax (same total daily doses of 5 and 15 mg/kg): showed more anti-tumor activities relative to venetoclax

SMILES: CC1(C)CCC(CN2CCN(c3ccc(C(=O)NS(=O)(=O)c4ccc(NCC5CCOCC5)c([N+](=O)[O-])c4)c(Oc4cnc5[nH]ccc5c4)c3)CC2)=C(c2ccc(Cl)cc2)C1 [Venetoclax, reference compound]
- Mean Tumor volume (Day 14) (mm^3 ± SEM) (5 mg/kg QD × 17 p.o.): 1082.1 ± 109.4 mm^3
- TGI (Day 14) (5 mg/kg QD × 17 p.o.): 38%
- Mean Tumor volume (Day 14) (mm^3 ± SEM) (15 mg/kg QD × 17 p.o.): 315.4 ± 23.1 mm^3
- TGI (Day 14) (15 mg/kg QD × 17 p.o.): 91%
